Legend:
[1] = tested on: brain tissue; experiment: Cytokine and chemokine levels in mice brain at 21 days after CLP (Luminex); type: in vivo, mouse; details: CLP vs control × MnTBAP vs placebo
Description: We used peritonitis induced by CLP as a model of sepsis (Rittirsch et al., 2009). Briefly, animals were anesthetized with ketamine (Imalgene® 1000 100 mg/kg, Merial, France) and Xylazine (Rompun® 2% 20 mg/kg, Bayer, Germany) prior to surgery. After laparotomy, caecum was ligatured at the distal third with a 4.0 suture and the distal part was perforated twice with a 21 Gauge needle.
(§1) MnTBAP is commercially available: it is for example manufactured by Sigma-Aldrich, Calbiochem, etc. For use it is dissolved following the guidance provided by the manufacturer.
Brain: snap frozen brain samples (n=6 per condition and per time point) were thawed, lysed by mechanical agitation (lysing matrix), and supernatant was aliquoted and stored at −80° C. until analysis.
These samples were processed for Luminex® multiple cytokine and chemokine analysis (Bio-Plex® Pro™ Mouse Cytokine Standard 23-flex, Group I and Standard 9-flex, Group II). Fifty microlitres of sample was analyzed on the Bio-flex system (Bio-Rad) in accordance with the manufacturers instructions. Data analyses for all assays were performed using the Bio-flex Manager software. […] Normalization was done by weight of the frozen brain sample.
The data represent the level of protein expression in pg mg^−1 of brain tissue using Luminex®. Control mice were non-operated but anesthetized. Median values of n=5 mice per group are represented. […]

[2] = tested on: control and CLP mice; experiment: Novel Object Location test (NOL); type: in vivo, mouse; details: F(1,29)=0.0007, p=0.98; day 20
Description: Data shown are mean values (±SD). Gray bars represent MnTBAP-treated mice from either CLP or control groups, and black bars represent placebo-treated mice from either CLP or Control groups. Two-way analyses of variance (ANOVAs) (CLP vs Control×MnTBAP vs Placebo) were performed. When a significant interaction was observed, planned comparisons were performed for the CLP/Placebo group against the three other groups. The significance of the planned comparisons is indicated with asterisks (*p<0.05, **p<0.01, ***p<0.001, ****p<0.0001).
as §1
Twice a week after the CLP, survival mice were gently handled for at least four 5-min sessions to habituate to the experimenter. Then, 20 and 21 days after CLP, mice were submitted to the novel object location (NOL) and novel object recognition (NOR) tests. […]
The familiarization sessions consisted on 10 min of free exploration of two identical objects, placed inside the same open field arena that the mice had visited on the previous day. […] Then, the percentage of exploration of the new object was calculated, reflecting the retention of the familiar object memory at long-term (24 h). […]

[3] = Liu et al., 2013b; cited from earlier work

## O=C(O)c1ccc(/C2=C3\C=CC(=N3)/C(c3ccc(C(=O)O)cc3)=c3/cc/c4[n]3[Mn]([Cl])[n]3c2ccc3/C(c2ccc(C(=O)O)cc2)=C2/C=CC(=N2)\C=4c2ccc(C(=O)O)cc2)cc1 [MnTBAP, Manganese (III) tetrakis (4-benzoic acid)porphyrin chloride]
[1]
  measured brain tissue cytokines, two-way ANOVA: did not show any CLP vs control×MnTBAP vs placebo interaction, or difference linked to condition or treatment between the groups
[2]
  NOL exploration time, CLP vs control×MnTBAP vs placebo interaction: no significant CLP vs control×MnTBAP vs placebo interaction
[3]
  BBB penetration: poorly penetrates the BBB

Source: patent publication US20240148749A1 (priority 2021, published 2024)
